Reference: ChEMBL document CHEMBL1201862, “PubChem BioAssay data set” (2004)
Activity calls are given as the source filed them.

Tests used:
[1] = molecular target: T1, Polyadenylate-binding protein 1 (Homo sapiens, UniProt P11940); assay: PABP1 MLLE–PAM2 interaction inhibitors, dose response, miRNA deadenylation inhibitor project, biochemical, fluorescence polarization, Cy5-PAM2 peptide, secondary (AID 602260); type: functional; conditions: read-out: IC50_Mean
[2] = molecular target: T1, Polyadenylate-binding protein 1; assay: PABP1 MLLE–PAM2 binding inhibitor potency, dose response, biochemical, fluorescence polarization, FITC-PAM2 peptide (AID 602259); type: functional; conditions: read-out: IC50_Mean
[3] = molecular target: T2, Corticotropin-releasing factor receptor 2/Corticotropin-releasing factor-binding protein (Homo sapiens, UniProt P24387+Q13324); assay: Dose Response confirmation of uHTS hits for small molecule antagonists of the CRF-binding protein and CRF-R2 receptor complex.; type: functional; conditions: read-out: IC50_Mean
T2 sequence (Q13324 whole entry): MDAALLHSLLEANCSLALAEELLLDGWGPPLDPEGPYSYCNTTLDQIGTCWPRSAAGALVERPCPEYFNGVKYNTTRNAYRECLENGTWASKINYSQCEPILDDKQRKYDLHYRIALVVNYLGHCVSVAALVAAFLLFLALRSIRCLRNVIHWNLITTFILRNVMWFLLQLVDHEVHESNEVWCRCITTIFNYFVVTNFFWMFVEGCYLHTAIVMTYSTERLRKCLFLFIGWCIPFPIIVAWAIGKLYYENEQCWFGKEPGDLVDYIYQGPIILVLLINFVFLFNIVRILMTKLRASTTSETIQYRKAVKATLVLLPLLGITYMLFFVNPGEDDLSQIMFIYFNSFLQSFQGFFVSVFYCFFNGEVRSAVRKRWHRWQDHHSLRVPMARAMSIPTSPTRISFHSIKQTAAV
T2 sequence (P24387 whole entry): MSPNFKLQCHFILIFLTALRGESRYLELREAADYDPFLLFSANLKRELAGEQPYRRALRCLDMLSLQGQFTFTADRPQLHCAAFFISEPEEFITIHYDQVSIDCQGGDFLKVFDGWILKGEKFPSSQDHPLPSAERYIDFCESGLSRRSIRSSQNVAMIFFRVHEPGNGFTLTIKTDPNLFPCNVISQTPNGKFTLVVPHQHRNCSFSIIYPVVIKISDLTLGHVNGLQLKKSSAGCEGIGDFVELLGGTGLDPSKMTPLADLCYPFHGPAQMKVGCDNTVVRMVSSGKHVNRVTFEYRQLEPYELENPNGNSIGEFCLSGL

[4] = molecular target: T2, Corticotropin-releasing factor receptor 2/Corticotropin-releasing factor-binding protein; assay: activators of CRF receptor 2 with binding protein – uHTS hits, confirmation (AID 602473); type: functional; conditions: read-out: EC50_Mean
Streptokinase A = molecular target: T3, Streptokinase A (Streptococcus pyogenes serotype M1, UniProt P10520); assay: S. pyogenes streptokinase expression inhibitors, potency, dose response, plasminogen activation absorbance, OD405 (AID 1914); type: functional, Streptococcus pyogenes M1 GAS;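 further: secreted streptokinase activity via plasminogen activation per viability signal from cell pellet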
T3 sequence (P10520 whole entry): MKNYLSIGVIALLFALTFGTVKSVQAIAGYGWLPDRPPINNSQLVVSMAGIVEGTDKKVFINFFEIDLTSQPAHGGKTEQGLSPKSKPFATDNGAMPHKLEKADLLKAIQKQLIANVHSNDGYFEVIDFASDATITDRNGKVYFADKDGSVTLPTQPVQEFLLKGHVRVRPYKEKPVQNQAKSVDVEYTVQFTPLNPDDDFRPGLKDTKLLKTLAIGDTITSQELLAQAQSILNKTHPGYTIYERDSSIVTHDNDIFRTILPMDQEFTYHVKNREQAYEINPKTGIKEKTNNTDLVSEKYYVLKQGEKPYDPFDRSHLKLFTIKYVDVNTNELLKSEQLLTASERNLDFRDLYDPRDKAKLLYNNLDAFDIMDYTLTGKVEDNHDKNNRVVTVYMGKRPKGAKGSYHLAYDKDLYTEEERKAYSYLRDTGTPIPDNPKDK

[5] = molecular target: T4, Ubiquitin-conjugating enzyme E2 N (Homo sapiens, UniProt P61088); type: functional;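 further: Dose-response confirmation in a TR-FRET assay detecting UBC13-driven polyubiquitin chain formation, inhibition measured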
T4 sequence (P61088 whole entry): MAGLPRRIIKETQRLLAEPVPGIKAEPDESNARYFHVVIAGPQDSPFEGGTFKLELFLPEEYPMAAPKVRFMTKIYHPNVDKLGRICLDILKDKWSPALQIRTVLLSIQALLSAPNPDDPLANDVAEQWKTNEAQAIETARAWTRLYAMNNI

[6] = tested on: Streptococcus sp. 'group A'; assay: growth inhibition of control SK(-) GAS strain, dose response, counter-screen for streptokinase expression inhibitor project, luminescence, kanamycin, BacTiterGlo, confirmation (AID 1900); type: functional, organism-based
Streptococcus = assay: Group A Streptococcus viability loss, dose response, counter-screen for streptokinase expression inhibitor project, luminescence, BacTiterGlo (AID 1915); type: functional, organism-based;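 further: potency for reduction of bacterial viability or growth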
[7] = microbe, parasite or virus in culture; type: functional; conditions: Mycobacterium tuberculosis
Fatty acid synthase [8] = molecular target: T5, Fatty acid synthase (Homo sapiens, UniProt P49327); assay: FAS thioesterase domain inhibitors, dose response, biochemical, endpoint fluorescence intensity, uHTS hits (AID 624327); type: functional;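 further: fluorescence from hydrolysis of an O-methyl fluorescein acyl ester substrate by the enzyme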
Fatty acid synthase [9] = molecular target: T5, Fatty acid synthase; assay: FAS thioesterase domain inhibitors, dose response, biochemical, kinetic fluorescence intensity (AID 624326); type: functional;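 further: rate of fluorescence rise from hydrolysis of a fluorogenic O-methyl fluorescein ester substrate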
[10] = inhibitors of intracellular T. cruzi replication, confirmation, NIH3T3 host cells, beta-gal luminescence (AID 2044); type: functional, cell-based;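 further: intracellular parasites grown in NIH/3T3 mouse fibroblasts as host cells; luminescent beta-galactosidase reporter signal from transgenic T. cruzi replicating inside host cells; inhibitors lower the luminescence signal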
[11] = cytotoxicity toward NIH3T3 fibroblasts, dose response, counter-screen, cell-based, ATP luminescence, mouse fibroblasts (AID 2010); type: functional;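 further: cells exposed to compound for about 90 hours before reading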

T5 sequence (P49327 whole entry, the tested form may be a part): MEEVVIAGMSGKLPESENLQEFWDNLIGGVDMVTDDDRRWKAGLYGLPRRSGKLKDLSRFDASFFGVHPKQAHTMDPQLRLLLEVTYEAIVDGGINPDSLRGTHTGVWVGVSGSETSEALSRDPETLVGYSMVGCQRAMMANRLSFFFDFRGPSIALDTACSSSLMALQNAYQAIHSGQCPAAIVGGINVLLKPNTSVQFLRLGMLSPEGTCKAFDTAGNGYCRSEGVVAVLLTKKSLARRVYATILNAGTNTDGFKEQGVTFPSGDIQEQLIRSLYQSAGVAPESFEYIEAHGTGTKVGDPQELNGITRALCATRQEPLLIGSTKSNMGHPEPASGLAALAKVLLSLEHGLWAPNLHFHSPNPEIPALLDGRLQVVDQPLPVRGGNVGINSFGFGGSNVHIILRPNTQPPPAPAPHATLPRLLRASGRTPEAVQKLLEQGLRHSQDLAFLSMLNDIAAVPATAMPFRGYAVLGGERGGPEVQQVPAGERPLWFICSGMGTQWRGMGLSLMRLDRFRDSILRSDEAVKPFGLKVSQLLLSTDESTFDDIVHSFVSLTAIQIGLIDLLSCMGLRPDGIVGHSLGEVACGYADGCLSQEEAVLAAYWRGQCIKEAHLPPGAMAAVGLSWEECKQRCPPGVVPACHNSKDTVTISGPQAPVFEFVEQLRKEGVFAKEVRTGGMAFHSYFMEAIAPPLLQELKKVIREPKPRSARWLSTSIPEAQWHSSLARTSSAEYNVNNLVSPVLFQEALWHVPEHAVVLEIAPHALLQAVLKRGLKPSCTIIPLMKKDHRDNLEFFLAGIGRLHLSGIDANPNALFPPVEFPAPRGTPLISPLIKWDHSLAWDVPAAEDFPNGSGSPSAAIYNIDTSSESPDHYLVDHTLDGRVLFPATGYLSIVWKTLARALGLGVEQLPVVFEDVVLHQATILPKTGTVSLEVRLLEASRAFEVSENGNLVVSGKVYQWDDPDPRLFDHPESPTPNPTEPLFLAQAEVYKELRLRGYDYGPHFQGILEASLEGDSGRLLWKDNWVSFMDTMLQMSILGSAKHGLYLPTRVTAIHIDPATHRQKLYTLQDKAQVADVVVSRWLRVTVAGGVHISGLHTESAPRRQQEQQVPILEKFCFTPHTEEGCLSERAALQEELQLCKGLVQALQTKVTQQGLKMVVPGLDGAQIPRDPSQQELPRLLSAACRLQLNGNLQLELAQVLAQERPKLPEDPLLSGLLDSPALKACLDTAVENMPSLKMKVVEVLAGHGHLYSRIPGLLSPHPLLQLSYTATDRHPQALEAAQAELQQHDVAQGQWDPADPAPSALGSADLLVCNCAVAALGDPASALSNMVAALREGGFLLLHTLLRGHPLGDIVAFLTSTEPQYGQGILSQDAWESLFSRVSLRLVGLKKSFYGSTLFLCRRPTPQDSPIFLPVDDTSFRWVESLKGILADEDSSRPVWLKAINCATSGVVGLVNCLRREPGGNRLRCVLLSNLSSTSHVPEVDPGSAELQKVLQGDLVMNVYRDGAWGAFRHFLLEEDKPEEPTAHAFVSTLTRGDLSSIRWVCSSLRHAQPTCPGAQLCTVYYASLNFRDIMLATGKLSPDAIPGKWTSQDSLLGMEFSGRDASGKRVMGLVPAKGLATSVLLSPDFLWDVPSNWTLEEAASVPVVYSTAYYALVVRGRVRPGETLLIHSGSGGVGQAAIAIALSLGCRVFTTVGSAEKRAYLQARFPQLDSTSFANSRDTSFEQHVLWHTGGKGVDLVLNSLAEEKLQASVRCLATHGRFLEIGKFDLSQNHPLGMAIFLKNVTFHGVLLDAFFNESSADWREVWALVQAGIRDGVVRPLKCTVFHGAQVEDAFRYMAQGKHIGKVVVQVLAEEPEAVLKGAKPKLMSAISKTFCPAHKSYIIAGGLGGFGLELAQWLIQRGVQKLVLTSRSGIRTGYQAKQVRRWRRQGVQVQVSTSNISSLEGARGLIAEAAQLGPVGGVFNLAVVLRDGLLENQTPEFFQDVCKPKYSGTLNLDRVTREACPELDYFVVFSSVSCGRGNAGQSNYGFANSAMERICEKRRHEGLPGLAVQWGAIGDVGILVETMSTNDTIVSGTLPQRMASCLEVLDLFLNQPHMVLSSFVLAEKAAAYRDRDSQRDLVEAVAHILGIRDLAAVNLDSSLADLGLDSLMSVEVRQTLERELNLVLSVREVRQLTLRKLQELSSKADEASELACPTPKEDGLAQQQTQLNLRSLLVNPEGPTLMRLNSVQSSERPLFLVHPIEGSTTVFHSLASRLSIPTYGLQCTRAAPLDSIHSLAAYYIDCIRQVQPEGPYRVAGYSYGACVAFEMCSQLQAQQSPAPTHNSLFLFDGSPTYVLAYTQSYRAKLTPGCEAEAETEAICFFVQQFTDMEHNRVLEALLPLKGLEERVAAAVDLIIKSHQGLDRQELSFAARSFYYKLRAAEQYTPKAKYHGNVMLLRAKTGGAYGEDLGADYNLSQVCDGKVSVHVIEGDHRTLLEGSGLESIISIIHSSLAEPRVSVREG
T1 sequence (P11940 whole entry): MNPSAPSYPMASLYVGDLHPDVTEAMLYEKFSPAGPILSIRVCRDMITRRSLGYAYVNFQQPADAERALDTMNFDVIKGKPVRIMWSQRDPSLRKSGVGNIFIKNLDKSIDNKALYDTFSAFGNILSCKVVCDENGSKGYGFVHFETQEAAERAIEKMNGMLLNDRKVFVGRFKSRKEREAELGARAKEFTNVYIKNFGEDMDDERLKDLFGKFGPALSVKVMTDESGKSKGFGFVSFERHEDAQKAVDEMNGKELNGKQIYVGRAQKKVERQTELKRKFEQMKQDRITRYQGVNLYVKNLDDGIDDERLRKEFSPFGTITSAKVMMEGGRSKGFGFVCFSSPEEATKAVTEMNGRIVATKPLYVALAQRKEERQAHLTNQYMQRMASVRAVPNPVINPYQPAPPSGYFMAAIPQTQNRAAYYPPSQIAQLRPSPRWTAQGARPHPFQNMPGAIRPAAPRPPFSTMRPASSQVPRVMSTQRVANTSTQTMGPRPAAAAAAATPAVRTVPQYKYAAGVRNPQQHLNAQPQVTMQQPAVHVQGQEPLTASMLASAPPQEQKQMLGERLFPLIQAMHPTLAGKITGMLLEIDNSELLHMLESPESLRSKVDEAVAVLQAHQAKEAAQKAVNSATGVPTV

O=C(NC(=S)NCCO)c1cn(-c2ccccc2)nc1-c1ccccc1
IC50 [1]: > 66 µM (inactive)
IC50 [2]: > 66 µM (inactive)

O=C(CC(NC(=O)OCc1ccccc1)C(=O)OCc1ccccc1)OCc1ccccc1 (centres undefined)
IC50 [3]: > 47.1 µM (inactive)
EC50 [4]: > 53 µM (inactive)

Cc1ccc2nc(N=C(N)NC(=O)NC3CCCCC3)nc(C)c2c1
EC50 (Streptokinase A): 52.7 µM (active)
IC50 [5]: > 20 µM (inactive)

COc1ccc(N=C(S)NC(NC(=O)c2ccc(Cl)cc2Cl)C(Cl)(Cl)Cl)c([N+](=O)[O-])c1 (centres undefined)
EC50 [6]: 1.22 µM (active)
EC50 (Streptokinase A): 20.9 µM (active)
EC50 (Streptococcus): > 150 µM (not active)
IC50 [1]: > 66 µM (inactive)
IC50 [2]: > 66 µM (inactive)

Cc1ccc(S(=O)(=O)N2CCCC(C(=O)NNCC(=O)Nc3cc(F)ccc3F)C2)cc1 (centres undefined)
IC50 [5]: > 20 µM (inactive)

Cc1cccc2sc(N(CCN3CCOCC3)C(=O)CCS(=O)(=O)c3ccccc3)nc12
IC50 [5]: > 20 µM (inactive)

CCCCCOc1ccc(NC2=CC(=O)CCC2)cc1
CC50 [7]: > 40 µM (active)

COc1cccc(NC(=O)COc2c(F)c(F)c(C(F)(F)F)c(F)c2F)c1
IC50 (Fatty acid synthase [8]): 12.2 µM (active)
IC50 (Fatty acid synthase [9]): 10.5 µM (active)

COc1ccccc1S(=O)(=O)N1CCn2cccc2C1C (centres undefined)
IC50 [3]: > 47.1 µM (inactive)
EC50 [4]: > 53 µM (inactive)

O=C(CN(c1ccc(Cl)cc1)S(=O)(=O)c1ccccc1)N/N=C/c1ccco1
IC50 (Fatty acid synthase [8]): 10.8 µM (active)
IC50 (Fatty acid synthase [9]): 6.94 µM (active)

COc1cc(/C=N/c2c(C)cc(C)cc2C)ccc1OC(C)=O
IC50 [3]: > 47.1 µM (inactive)
EC50 [4]: > 53 µM (inactive)

CCOC(=O)C1CCN(C(=O)COC(=O)c2cc([N+](=O)[O-])ccc2N2CCOCC2)CC1
IC50 (Fatty acid synthase [8]): 4.15 µM (active)
IC50 (Fatty acid synthase [9]): 7.1 µM (active)

Cc1nnc(NC(=O)CSc2nnc(Cc3ccccc3)n2-c2ccccc2)s1
IC50 [3]: > 47.1 µM (inactive)
EC50 [4]: > 53 µM (inactive)

Cc1nc(NC(=S)NC(=O)c2ccco2)sc1C(=O)N(C)C
IC50 [1]: > 66 µM (inactive)
IC50 [2]: > 66 µM (inactive)

Cn1nc(C(C)(C)C)cc1NC(=O)Nc1cc(Cl)cc(Cl)c1
CC50 [7]: 11.3 µM (active)

C=CCn1c(NC(=O)c2ccc(C)cc2)nc2ccccc21
EC50 [6]: 84.6 µM (active)
EC50 (Streptokinase A): > 150 µM (not active)
EC50 [10]: 2.11 µM (active)
EC50 [11]: > 60 µM (not active)
EC50 (Streptococcus): > 150 µM (not active)
IC50 [5]: > 20 µM (inactive)

Cc1cccc(OCC(O)CN2CCN(CCN3C(=O)c4cccc5cccc(c45)C3=O)CC2)c1C (centres undefined)
EC50 [10]: 2.14 µM (active)
EC50 [11]: 8.54 µM (active)
IC50 [5]: > 20 µM (inactive)

Cc1ccc(-n2ccnc(SCC(=O)NC3CCCCC3)c2=O)cc1F
IC50 [1]: > 66 µM (inactive)
IC50 [2]: > 66 µM (inactive)

CCCn1nc(C(=O)Nc2cc(S(=O)(=O)Nc3ccc(OC)cc3)ccc2O)c2ccccc2c1=O
IC50 [3]: > 47.1 µM (inactive)
EC50 [4]: > 53 µM (inactive)

Cc1c(OCC(=O)NCCN2CCOCC2)ccc2c3c(c(=O)oc12)CCC3
IC50 [3]: > 47.1 µM (inactive)
EC50 [4]: > 53 µM (inactive)
